From patent publication US20050267067A1, “Radical reaction inhibitors, method for inhibition of radical reactions, and use thereof” (priority 2002, published 2005)

What was measured:
[1] = Radical oxidation of linoleic acid by AAPH (conjugated diene, TBARS); details: for Formed TBARS / Formed conjugated diene: 37° C., AAPH; for Conjugated diene formation: (%) / TBARS formation: (%): versus system with no cyclotetrasaccharide
Text: As a negative control, a system of PBS with no cyclotetrasaccharide was provided and measured similarly as above. Conjugated diene was quantified by measuring the absorbance of test samples at a wavelength of 234 nm according to the method by Okamura et al., in Journal of Agricultural and Food Chemistry, Vol. 42, page 1,612 (1994). TABRS was quantified by allowing the sampled test specimens to react with thiobarbituric acid and measured for absorbance of the reaction mixture at a wavelength of 532 nm according to the method by Ohgawara et al., in Journal of Lipid Research, Vol. 19, page 1,053 (1978). The quantification of the formed TBARS in test samples was determined with a calibration curve provided in such a manner of diluting 1,1,3,3-tetraethoxypropane with ethanol into 10, 50 and 100 μg/ml dilutes, allowing the dilutes with thiobarbituric acid similarly as the test samples, measuring the absorbance of the resulting mixtures similarly as above, and drawing calibration curve based on the measured absorbances and the amount of TBARS calculated theoretically. The quantification of the formed conjugated diene in the test samples was determined by calculating the absorbances of the samples obtained in this experiment, based on the molar absorbance coefficient of molecules disclosed in Journal of Agricultural and Food Chemistry, Vol. 42, page 1,612 (1994). Tables 4 and 5 show the results on measurement for the formation level of conjugated diene and TBARS, respectively.

[2] = Preservation of vitamin D3 tablets at 60° C., absorbance at 265 nm; type: physicochemical; details: after preserving for 14 days
[3] = Inhibition of hydroxy radical formation (H2O2/iron sulfate, DMPO spin trap, ESR); details: for Amount of formed hydroxy radical: ESR peak ratio to Mn2+ standard, relative value; for Hydroxy radical formation (%): versus system with no saccharide
Method: Each of the resulting mixtures was mixed to initiate reaction, injected into a cell for measuring electron spin resonance spectrum (ESR), set to a detector, and measured for formation level of hydroxy radical at a prescribed period of time after initiating reaction. […] For measurement of ESR, “Free Radical Monitor JES-FR30” was used, and the formation level of hydroxy radical was determined by calculating a ratio of a peak level detected first after initiating the measurement among the characteristic signal peaks characteristic of 5,5-dimethyl-1-pyrroline-oxide-OH (hydroxy radical), used as a spin trapping agent, and a peak level of Mn^2+ of an external standard installed in the apparatus of “JES-FR30”, and expressed as relative values in Table 1.

[4] = Oxidation of rat small intestinal mucosal enzyme solution by AAPH (conjugated diene, TBARS); type: biochemical
Method: As a model system for examining the influence of cyclotetrasaccharide on small intestinal mucous disorders, there was provided a system for examining the influence of cyclotetrasaccharide on the oxidation of a rat small intestinal mucosal enzyme solution by 2,2-azo-bis(2-amidinopropane)-dihydrochloric acid (AAPH).
To two grams of a rat small intestinal mucosal acetone powder, commercialized by Sigma Chemical Company, St. Louis, Mo., USA, was added 20 ml of 50 mM PBS (pH 7.2) and homogenized in ice bath. The mixture was centrifuged at 10,000 rpm for 10 min to obtain a supernatant for use as a rat small intestinal mucosal enzyme solution containing 10 mg/ml of proteins. A half milliliter of the rat small intestinal mucosal enzyme solution, 0.5 ml of a 100 mM AAPH solution, and 0.5 ml of a 200 mM of the crystalline cyclotetrasaccharide pentahydrate prepared in Experiment 1-1 were mixed, followed by incubation at 37° C. for […]. During the incubation, the mixture was sampled at two and six hours after initiating the incubation for quantifying the formed conjugated diene, while the specimens sampled at six hours after initiating the incubation were quantified for the formed TBARS.

[5] = reaction time 6 hr, listed as cyclotetrasaccharide

For `OCC1OC2OCC3O[C@H](O[C@H]4C(O)C(CO)OC(OCC5O[C@H](O[C@@H](C1O)C2O)C(O)C(O)[C@@H]5O)C4O)C(O)C(O)[C@@H]3O` (stereo partly drawn) [Cyclotetrasaccharide, cyclo{→6}-α-D-glucopyranosyl-(1→3)-α-D-glucopyranosyl-(1→6)-α-D-glucopyranosyl-(1→3)-α-D-glucopyranosyl-(1→}], the “Formed TBARS” value ([1]; reaction time 0 hr) was 0.00 μg/g-linoleic acid, the Formed conjugated diene ([1]; reaction time 0 hr) was 0.27 μg/g-linoleic acid and the “Conjugated diene formation: (%)” value ([1]; reaction time 0 hr) was “(100) %”. The “Formed TBARS” value ([1]; reaction time 1 hr) was 1.52 μg/g-linoleic acid, the Formed conjugated diene ([1]; reaction time 1 hr) was 5.16 μg/g-linoleic acid and the “Conjugated diene formation: (%)” value ([1]; reaction time 1 hr) was “(55) %”. For the same compound, the “TBARS formation: (%)” value ([1]; reaction time 1 hr) was “(55) %”, the “Formed TBARS” value ([1]; reaction time 2 hr) was 3.55 μg/g-linoleic acid and the Formed conjugated diene ([1]; reaction time 2 hr) was 9.15 μg/g-linoleic acid. The “Conjugated diene formation: (%)” value ([1]; reaction time 2 hr) was “(51) %”, the “TBARS formation: (%)” value ([1]; reaction time 2 hr) was “(35) %” and the “Formed TBARS” value ([1]; reaction time 6 hr) was 7.97 μg/g-linoleic acid. The Formed conjugated diene ([1]; reaction time 6 hr) was 23.83 μg/g-linoleic acid, the “Conjugated diene formation: (%)” value ([1]; reaction time 6 hr) was “(40) %” and the “TBARS formation: (%)” value ([1]; reaction time 6 hr, listed as Cyclotetra-saccharide) was “(30) %”. For the same compound, the “Conjugated diene formation: (%)” value [1, 5] was “about 40%”, the “TBARS formation: (%)” value [1, 5] was “about 30%” and the “residual vitamin D3 (%)” value [2] was 61%. The “Amount of formed hydroxy radical” value ([3]; 15 mM saccharide) was 1.009, the “Hydroxy radical formation (%)” value ([3]; 15 mM saccharide) was “(34) %” and the “Hydroxy radical formation (%)” value ([3]; 15 mM saccharide, listed as cyclotetrasaccharide) was “about 34%”. The “Amount of formed hydroxy radical” value ([3]; 38 mM saccharide) was 0.265, the “Hydroxy radical formation (%)” value ([3]; 38 mM saccharide) was “(9) %” and the “Hydroxy radical formation (%)” value ([3]; 38 mM saccharide, listed as cyclotetrasaccharide) was “about 9%”. The “Amount of formed hydroxy radical” value ([3]; 75 mM saccharide) was 0.228, the “Hydroxy radical formation (%)” value ([3]; 75 mM saccharide) was “(8) %” and the “Amount of formed hydroxy radical” value ([3]; 150 mM saccharide) was 0.125. The “Hydroxy radical formation (%)” value ([3]; 150 mM saccharide) was “(4) %”, the Formed conjugated diene ([4]; reaction time 0 hr, AAPH, 37° C.) was 0.00 μg/mg-protein and the Formed conjugated diene ([4]; reaction time 2 hr, AAPH, 37° C.) was 2.46 μg/mg-protein. The “Conjugated diene formation: (%)” value ([4]; reaction time 2 hr, versus system with no cyclotetrasaccharide) was “(15) %”, the Formed conjugated diene ([4]; reaction time 6 hr, AAPH, 37° C.) was 61.84 μg/mg-protein and the “Conjugated diene formation: (%)” value ([4]; reaction time 6 hr, versus system with no cyclotetrasaccharide) was “(60) %”. For the same compound, the Formed TBARS ([4]; six hours after initiating the incubation, AAPH, 37° C.) was 3.71 µg/mg-protein and the “TBARS formation (%)” value ([4]; six hours, versus system with no cyclotetrasaccharide) was “(61) %”.
